In test [1] the target is recombinant human kappa opioid receptor (κ) (Homo sapiens (Human), UniProt P41145). Description: κ-opioid receptor radioligand dose-displacement binding assay ([3H]-U69,593). The method, then:
κ-Opioid Receptor Binding Assay Procedures: Membranes from HEK-293 cells, CHO or U-2 OS cells expressing the recombinant human kappa opioid receptor (κ) (cloned in house) were prepared by lysing cells in ice cold hypotonic buffer (2.5 mM MgCl2, 50 mM HEPES, pH 7.4) (10 mL/10 cm dish) followed by homogenization with a tissue grinder/Teflon pestle. Membranes were collected by centrifugation at 30,000×g for 15 min at 4° C. and pellets were resuspended in hypotonic buffer to a final concentration of 1-3 mg/mL. Protein concentrations were determined using the BioRad protein assay reagent with bovine serum albumen as standard. Aliquots of κ receptor membranes were stored at −80° C.
Radioligand dose displacement assays used 0.4 nM [^3H]-U69,593 (GE Healthcare, Piscataway, N.J.; 40 Ci/mmole) with 15 μg membrane protein (recombinant κ opioid receptor expressed in HEK 293 cells; in-house prep) in a final volume of 200 μl binding buffer (5% DMSO, 50 mM Trizma base, pH 7.4). Non-specific binding was determined in the presence of 10 μM unlabeled naloxone or U69,593. All reactions were performed in 96-well polypropylene plates for 1 hour at a temperature of about 25° C. Binding reactions were terminated by rapid filtration onto 96-well Unifilter GF/C filter plates (Perkin Elmer, Shelton, Conn.) presoaked in 0.5% polyethylenimine (Sigma). Harvesting was performed using a 96-well tissue harvester (Perkin Elmer, Shelton, Conn.) followed by five filtration washes with 200 μl ice-cold binding buffer. Filter plates were subsequently dried at 50° C. for 1-2 hours. Fifty μl/well scintillation cocktail (Perkin Elmer, Shelton, Conn.) was added and plates were counted in a Packard Top-Count for 1 min/well.
(§1) In TABLE 1, binding affinity of certain Compounds of the Invention to the μ-, δ- and κ-opioid receptors was determined as described above.

Test [2] has as its target T1, μ-opioid receptor (Homo sapiens (Human), UniProt P35372). Description: μ-opioid receptor radioligand dose-displacement binding assay ([3H]-diprenorphine). How it is done:
μ-Opioid Receptor Binding Assay Procedures: Radioligand dose-displacement binding assays for μ-opioid receptors used 0.3 nM [^3H]-diprenorphine (Perkin Elmer, Shelton, Conn.), with […] membrane protein/well in a final volume of 500 μl binding buffer (10 mM MgCl2, 1 mM EDTA, 5% DMSO, 50 mM HEPES, pH 7.4). Reactions were carried out in the absence or presence of increasing concentrations of unlabeled naloxone. All reactions were conducted in 96-deep well polypropylene plates for 2 hours at room temperature. Binding reactions were terminated by rapid filtration onto 96-well Unifilter GF/C filter plates (Perkin Elmer, Shelton, Conn.), presoaked in 0.5% polyethylenimine using a 96-well tissue harvester (Perkin Elmer, Shelton, Conn.) followed by performing three filtration washes with 500 μl of ice-cold binding buffer. Filter plates were subsequently dried at 50° C. for 2-3 hours. BetaScint scintillation cocktail (Perkin Elmer, Shelton, Conn.) was added (50 μl/well), and plates were counted using a Packard Top-Count for 1 min/well. The data were analyzed using the one-site competition curve fitting functions in GraphPad PRISM™ v. 3.0 or higher (San Diego, Calif.), or an in-house function for one-site competition curve-fitting.
as §1

The target of a further test is δ opioid receptor (Homo sapiens (Human), UniProt P41143). Description: δ-opioid receptor radioligand dose-displacement binding assay ([3H]-Naltrindole). How it is done: δ-Oploid Receptor Binding Assay Procedures: δ-Opioid Receptor Binding Assay Procedures were conducted as follows. Radioligand dose-displacement assays used 0.3 nM [^3H]-Naltrindole (Perkin Elmer, Shelton, Conn.; 33.0 Ci/mmole) with 5 μg membrane protein (Perkin Elmer, Shelton, Conn.) in a final volume of 500 μl binding buffer (5 mM MgCl2, 5% DMSO, 50 mM Trizma base, pH 7.4). Non-specific binding was determined in the presence of 25 μM unlabeled naloxone. All reactions were performed in 96-deep well polypropylene plates for 1 hour at a temperature of about 25° C. Binding reactions were terminated by rapid filtration onto 96-well Unifilter GF/C filter plates (Perkin Elmer, Shelton, Conn.) presoaked in 0.5% polyethylenimine (Sigma). Harvesting was performed using a 96-well tissue harvester (Perkin Elmer, Shelton, Conn.) followed by five filtration washes with 500 μl ice-cold binding buffer. Filter plates were subsequently dried at 50° C. for 1-2 hours. Fifty μl/well scintillation cocktail (Perkin Elmer, Shelton, Conn.) was added and plates were counted in a Packard Top-Count for 1 min/well.
Sequence of δ opioid receptor (P41143 whole entry, looked up): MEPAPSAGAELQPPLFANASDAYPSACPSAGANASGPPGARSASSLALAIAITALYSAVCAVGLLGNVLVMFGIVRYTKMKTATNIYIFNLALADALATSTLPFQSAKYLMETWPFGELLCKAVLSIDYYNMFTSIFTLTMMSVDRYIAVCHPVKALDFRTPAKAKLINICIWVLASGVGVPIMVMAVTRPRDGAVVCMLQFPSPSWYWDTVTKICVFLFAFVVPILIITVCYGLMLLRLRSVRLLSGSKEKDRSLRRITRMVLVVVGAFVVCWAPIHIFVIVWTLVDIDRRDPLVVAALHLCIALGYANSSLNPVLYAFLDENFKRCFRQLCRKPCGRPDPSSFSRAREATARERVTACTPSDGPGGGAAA
as §1

For test [3], the target named is T1, μ-opioid receptor. Description: μ-opioid receptor [35S]GTPγS functional assay, HEK-293 or CHO cells. The following applies: for EC50: GTPγS; for Emax: relative to DAMGO. The test is classed as biochemical. How it is done: μ-Opioid Receptor Functional Assay Procedures: [^35S]GTPγS functional assays were conducted using freshly thawed μ-receptor membranes prepared in-house from a cell line expressing recombinant μ opioid receptor in a HEK-293, CHO or U-2 OS cell background, or purchased from a commercial source (Perkin Elmer, Shelton, Conn.; or DiscovRx, Fremont, Calif.). Assay reactions were prepared by sequentially adding the following reagents to binding buffer (100 mM NaCl, 10 mM MgCl2, 20 mM HEPES, pH 7.4) on ice (final concentrations indicated): membrane protein (0.026 mg/mL), saponin ([…]), GDP ([…]) and [^35S]GTPγS (0.20 nM; Perkin Elmer, Shelton, Conn.). The prepared membrane solution (190 μl/well) was transferred to 96-shallow well polypropylene plates containing 10 μl of 20× concentrated stock solutions of the agonist [D-Ala^2, N-methyl-Phe^4 Gly-ol^5]-enkephalin (DAMGO) prepared in dimethyl sulfoxide (DMSO). Plates were incubated for 30 min at about 25° C. with shaking. Reactions were terminated by rapid filtration onto 96-well Unifilter GF/B filter plates (Perkin Elmer, Shelton, Conn.) using a 96-well tissue harvester (Perkin Elmer, Shelton, Conn.) followed by three filtration washes with 200 μl of ice-cold wash buffer (10 mM NaH2PO4, 10 mM Na2HPO4, pH 7.4). Filter plates were subsequently dried at 50° C. for 2-3 hours. BetaScint scintillation cocktail (Perkin Elmer, Shelton, Conn.) was added (50 μl/well) and plates were counted using a Packard Top-Count for 1 min/well. Data were analyzed using the sigmoidal dose-response curve fitting functions in GraphPad PRISM v. 3.0, or an in-house function for non-linear, sigmoidal dose-response curve-fitting.
μ-Opioid Receptor Functional Data: μ GTP EC50 is the concentration of a compound providing 50% of the maximal response for the compound at a μ-opioid receptor.
μ GTP Emax (%) is the maximal effect elicited by a compound relative to the effect elicited by DAMGO, a standard μ agonist. Generally, the μ GTP Emax (%) value measures the efficacy of a compound to treat or prevent pain or other Conditions.
In TABLE 2, activity response of certain Compounds of the Invention to the μ-, δ- and κ-opioid receptors was determined as described above for functional assays using HEK-293 or CHO cells.
Background: GTPγS resists hydrolysis and so accumulates on activated G proteins.

Each structure is given as a SMILES string.

In general, Ki refers to a dissociation constant, usually derived from enzyme kinetics or from competition with a known ligand. What is called EC50 is the concentration giving half of the maximal effect. Higher therefore signals a need for much substance. The Emax is the greatest response seen or fitted, relative to the assay's reference. Consider `NC(=O)CN1C[C@H]2[C@H]3Cc4ccc(O)cc4[C@@]2(CCN3CC2CC2)CC1=O` [Compound 4, 2-((4aS,5R,10bS)— 13-(cyclopropylmethyl)-9-hydroxy-2-oxo-4,4-a,5,6-tetrahydro-1H-5,10b-(epiminoethano)benzo[f]isoquinolin-3(2H)-yl)acetamide], for which the Ki in test [1] worked out at 0.55 ± 0.08 nM; on μ-opioid receptor [2], 24.4 ± 7.61 nM; at δ opioid receptor it was 49 ± 17.7 nM. At μ-opioid receptor [3], a half-maximal response (EC50) required 9.11 ± 1.22 nM. In addition, the Emax on μ-opioid receptor [3] is 24%.
As for `O=C1C[C@]23CCN(CC4CC4)[C@H](Cc4ccc(O)cc42)[C@@H]3CN1Cc1ccc(O)cc1` [Compound 5, (4aS,5R,10bS)-13-(cyclopropylmethyl)-9-hydroxy-3-(4-hydroxybenzyl)-4,4-a,5,6-tetrahydro-1H-5,10b-(epiminoethano)benzo[f]isoquinolin-2(3H)-one], the Ki in test [1] turned out to be 6.27 ± 1.45 nM; on μ-opioid receptor [2] it was 12.8 ± 1.55 nM; on δ opioid receptor, 22.9 ± 8.53 nM. In addition, the EC50 at μ-opioid receptor [3] turned out to be 45.9 ± 14 nM. For the same compound, at μ-opioid receptor [3], the Emax worked out at 30%.
The matching figures for `O=C1C[C@]23CCN(CC4CC4)[C@H](Cc4ccc(O)cc42)[C@@H]3CN1` [Compound 7, (4aS,5R,10bS)-13-(cyclopropylmethyl)-9-hydroxy-4,4-a,5,6-tetrahydro-1H-5,10b-(epiminoethano)benzo[f]isoquinolin-2(3H)-one]: 0.18 ± 0.02 nM, 5.61 ± 0.44 nM, 15 ± 3.45 nM, 13.1 ± 3.75 nM and 28.7%.
The corresponding values for `O=C(O)CN1C[C@H]2[C@H]3Cc4ccc(O)cc4[C@@]2(CCN3CC2CC2)CC1=O` [Compound 8, 2-((4aS,5R,10bS)-13-(cyclopropylmethyl)-9-hydroxy-2-oxo-4,4-a,5,6-tetrahydro-1H-5,10b-(epiminoethano)benzo[f]isoquinolin-3(2H)-yl)acetic acid] are 4.03 ± 0.07 nM, 21.2 ± 6.62 nM, 82.2 ± 30.1 nM, 6.06 ± 2.1 nM and 12.3%.
For `Oc1ccc2c(c1)[C@@]13CCNC[C@H]1[C@@H](C2)N(CC1CC1)CC3` [Compound 13, (4aS,5R,10bR)-13-(cyclopropylmethyl)-2,3,4,4a,5,6-hexahydro-1H-5,10b-(epiminoethano)benzo[f]isoquinolin-9-ol], the Ki in test [1] came to 0.21 ± 0.04 nM; at μ-opioid receptor [2], 50.4 ± 16.7 nM; at δ opioid receptor, 174 ± 33.7 nM. Besides, the EC50 on μ-opioid receptor [3] was 29.4 ± 7.66 nM. In addition, the Emax on μ-opioid receptor [3] is 61%.
